Laboratory results published in ChEMBL document CHEMBL1201862, “PubChem BioAssay data set” (2004).
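Interpolation was linear, between the two tested concentrations surrounding the appropriate level; five concentrations were tested over 48 hours in 96-well plates. Abbreviation: GI50, concentration required for 50% inhibition of growth.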 Calls of active or inactive are those of the source. Cut-off read from the data, not from the text of the source: active = GI50 up to about 1.1 µM and inactive = higher.

Experiments:
Assay in all cases: DTP human tumour cell line panel, 48 h
ACHN = system: ACHN
MOLT-4 = system: MOLT-4
OVCAR-8 = system: OVCAR-8
K562 = system: K562
UACC-257 = system: UACC-257
LOX IMVI = system: LOX IMVI
DMS-114 = system: DMS-114
SN12C = system: SN12C
786-0 = system: 786-0
CCRF-CEM = system: CCRF-CEM
TK-10 = system: TK-10
HL-60 = system: HL-60
HT-29 = system: HT-29
LXFL 529 = system: LXFL 529
SK-OV-3 = system: SK-OV-3
DMS-273 = system: DMS-273
OVCAR-4 = system: OVCAR-4
T47D = system: T47D
SW-620 = system: SW-620
SR = system: SR

| Compound | GI50 (ACHN) | GI50 (MOLT-4) | GI50 (OVCAR-8) | GI50 (K562) | GI50 (UACC-257) | GI50 (LOX IMVI) | GI50 (DMS-114) | GI50 (SN12C) | GI50 (786-0) | GI50 (CCRF-CEM) | GI50 (TK-10) | GI50 (HL-60) | GI50 (HT-29) | GI50 (LXFL 529) | GI50 (SK-OV-3) | GI50 (DMS-273) | GI50 (OVCAR-4) | GI50 (T47D) | GI50 (SW-620) | GI50 (SR) |
| --- | --- | --- | --- | --- | --- | --- | --- | --- | --- | --- | --- | --- | --- | --- | --- | --- | --- | --- | --- | --- |
| O=C(NN1C(=O)C(Cl)C1c1ccc(O)cc1)c1ccccc1O (configuration not stated) | 19.1 µM (inactive) | 27.6 µM (inactive) | 13.5 µM (inactive) | 22.4 µM (inactive) | 20.7 µM (inactive) | 16.7 µM (inactive) | 14 µM (inactive) | 23 µM (inactive) | 18.7 µM (inactive) | 7.11 µM (inactive) | 24.7 µM (inactive) | 25.2 µM (inactive) | 18.4 µM (inactive) | 17.9 µM (inactive) | 25.8 µM (inactive) | 12.9 µM (inactive) | 23.7 µM (inactive) |  |  |  |
| COc1ccc(/C=C2/CSC/C(=C/c3ccc(OC)c(OC)c3)C2=O)cc1OC | 2.31 µM (inactive) | 1.74 µM (inactive) | 0.664 µM (active) | 1.42 µM (inactive) | 4.11 µM (inactive) | 1.27 µM (inactive) |  | 1.77 µM (inactive) | 2.02 µM (inactive) | 0.849 µM (active) | 3.9 µM (inactive) | 1.03 µM (active) | 1.09 µM (active) | 1.93 µM (inactive) | 6.73 µM (inactive) | 1.03 µM (active) | 1.71 µM (inactive) | 2.21 µM (inactive) | 1.19 µM (inactive) | 0.828 µM (active) |
| Cc1cc(C)[n+]2c(c1)C=CC2.[O-][Cl+3]([O-])([O-])[O-] | 17.7 µM (inactive) |  | 28.6 µM (inactive) |  | 11.5 µM (inactive) | 17.1 µM (inactive) | 5.5 µM (inactive) | 31.2 µM (inactive) | 37.2 µM (inactive) |  | 92 µM (inactive) | 2.94 µM (inactive) | 15.9 µM (inactive) | 16.5 µM (inactive) |  | 0.459 µM (active) | 49.9 µM (inactive) |  | 4.18 µM (inactive) |  |
| CC(=O)Nc1ccc(C(=O)N2N=C(C)/C(=C/c3ccc(O)cc3)C2=O)cc1 | > 100 µM (inactive) | > 100 µM (inactive) | > 100 µM (inactive) | > 100 µM (inactive) | > 100 µM (inactive) | > 100 µM (inactive) | > 100 µM (inactive) | > 100 µM (inactive) | > 100 µM (inactive) | > 100 µM (inactive) | > 100 µM (inactive) | > 100 µM (inactive) | > 100 µM (inactive) |  |  | > 100 µM (inactive) | > 100 µM (inactive) |  | > 100 µM (inactive) | > 100 µM (inactive) |
| O=C1c2ccccc2C(=O)N1C/C=N/NS(=O)(=O)c1ccc2ccccc2c1 | > 100 µM (inactive) | > 100 µM (inactive) | > 100 µM (inactive) | > 100 µM (inactive) | > 100 µM (inactive) |  |  | > 100 µM (inactive) | > 100 µM (inactive) | > 100 µM (inactive) | > 100 µM (inactive) | > 100 µM (inactive) | > 100 µM (inactive) | > 100 µM (inactive) | > 100 µM (inactive) | > 100 µM (inactive) | > 100 µM (inactive) |  | > 100 µM (inactive) | > 100 µM (inactive) |
| O=C(O)c1c[nH]c2c(=O)[nH]cnc12 | > 100 µM (inactive) | > 100 µM (inactive) | > 100 µM (inactive) | > 100 µM (inactive) | > 100 µM (inactive) | > 100 µM (inactive) | > 100 µM (inactive) | > 100 µM (inactive) | > 100 µM (inactive) | > 100 µM (inactive) | > 100 µM (inactive) | > 100 µM (inactive) | > 100 µM (inactive) | > 100 µM (inactive) | > 100 µM (inactive) |  |  |  | > 100 µM (inactive) | > 100 µM (inactive) |
| O=C(Nc1c(Cl)cc([N+](=O)[O-])cc1Cl)/C(=N\Nc1cccc(Cl)c1)c1c(O)c2ccccc2oc1=O | 49.2 µM (inactive) | > 100 µM (inactive) | > 100 µM (inactive) | 65.9 µM (inactive) | > 100 µM (inactive) |  | 52.7 µM (inactive) | 34.2 µM (inactive) | > 100 µM (inactive) | 75.2 µM (inactive) | > 100 µM (inactive) | 71.9 µM (inactive) | > 100 µM (inactive) |  | > 100 µM (inactive) |  | > 100 µM (inactive) |  | > 100 µM (inactive) | 78.7 µM (inactive) |
| N#CC(/C(CCCC(=O)Nc1cccc([N+](=O)[O-])c1)=N/NC(=O)c1cc2ccccc2cc1O)c1ccccc1 (configuration not stated) | 34.3 µM (inactive) | 14.6 µM (inactive) | 17.5 µM (inactive) | 17.7 µM (inactive) | 24.4 µM (inactive) | 16.4 µM (inactive) | 20.2 µM (inactive) | 35.6 µM (inactive) | 24.2 µM (inactive) | 6.1 µM (inactive) | 31.1 µM (inactive) | 4.79 µM (inactive) | 36.4 µM (inactive) | 27.2 µM (inactive) | 61.8 µM (inactive) |  | 31.1 µM (inactive) |  | 34.6 µM (inactive) | 26.8 µM (inactive) |
| O=c1c2ccccc2oc2nccnc12 | > 100 µM (inactive) | > 100 µM (inactive) | > 100 µM (inactive) | > 100 µM (inactive) | > 100 µM (inactive) | > 100 µM (inactive) | > 100 µM (inactive) | > 100 µM (inactive) | > 100 µM (inactive) | > 100 µM (inactive) | > 100 µM (inactive) |  | > 100 µM (inactive) | > 100 µM (inactive) | > 100 µM (inactive) | > 100 µM (inactive) | > 100 µM (inactive) |  | > 100 µM (inactive) |  |
| C#C[C@@]1(O)CCCC2=CC(=O)C[C@]21C | > 100 µM (inactive) | > 100 µM (inactive) | > 100 µM (inactive) | > 100 µM (inactive) | > 100 µM (inactive) |  | > 100 µM (inactive) | > 100 µM (inactive) | > 100 µM (inactive) | > 100 µM (inactive) | > 100 µM (inactive) | > 100 µM (inactive) | > 100 µM (inactive) | > 100 µM (inactive) | > 100 µM (inactive) |  |  |  | > 100 µM (inactive) | > 100 µM (inactive) |
| C[N+](C)(C)CC1CCCCC1O (configuration not stated) | > 100 µM (inactive) | > 100 µM (inactive) | > 100 µM (inactive) |  | > 100 µM (inactive) | > 100 µM (inactive) |  | > 100 µM (inactive) | > 100 µM (inactive) | > 100 µM (inactive) | > 100 µM (inactive) |  | > 100 µM (inactive) | > 100 µM (inactive) | > 100 µM (inactive) | > 100 µM (inactive) | > 100 µM (inactive) |  | > 100 µM (inactive) | > 100 µM (inactive) |
| CCCC(C)NC1=C(NC(C)=O)C(=O)c2ccccc2C1=O (configuration not stated) | > 100 µM (inactive) | > 100 µM (inactive) | > 100 µM (inactive) | > 100 µM (inactive) | > 100 µM (inactive) | > 100 µM (inactive) |  | > 100 µM (inactive) | > 100 µM (inactive) | > 100 µM (inactive) | > 100 µM (inactive) | 97.3 µM (inactive) | > 100 µM (inactive) | > 100 µM (inactive) | > 100 µM (inactive) | > 100 µM (inactive) | > 100 µM (inactive) |  | > 100 µM (inactive) | > 100 µM (inactive) |
